In PMC6009968, “Through scaffold modification to 3,5-diaryl-4,5-dihydroisoxazoles: new potent and selective inhibitors of monoamine oxidase B” (Journal of Enzyme Inhibition and Medicinal Chemistry, 2017):
Read-outs that look alike come from different tables or passages of the source. Marks after values point to notes of the source that are not given here.

Assays:
[1] = target: T1, hMAO-B (Homo sapiens, UniProt P27338); assay: Inhibition of human recombinant MAO B (Amplex Red assay); details: for Ratio, selectivity ratios [IC50(MAO-A)]/[IC50(MAO-B)]: bounds assume IC50 against MAO-A is the highest concentration tested (100 μM); for Ratio: assumes the inactive isoform IC50 is the highest concentration tested (100 μM)
T1 sequence (P27338 1-520): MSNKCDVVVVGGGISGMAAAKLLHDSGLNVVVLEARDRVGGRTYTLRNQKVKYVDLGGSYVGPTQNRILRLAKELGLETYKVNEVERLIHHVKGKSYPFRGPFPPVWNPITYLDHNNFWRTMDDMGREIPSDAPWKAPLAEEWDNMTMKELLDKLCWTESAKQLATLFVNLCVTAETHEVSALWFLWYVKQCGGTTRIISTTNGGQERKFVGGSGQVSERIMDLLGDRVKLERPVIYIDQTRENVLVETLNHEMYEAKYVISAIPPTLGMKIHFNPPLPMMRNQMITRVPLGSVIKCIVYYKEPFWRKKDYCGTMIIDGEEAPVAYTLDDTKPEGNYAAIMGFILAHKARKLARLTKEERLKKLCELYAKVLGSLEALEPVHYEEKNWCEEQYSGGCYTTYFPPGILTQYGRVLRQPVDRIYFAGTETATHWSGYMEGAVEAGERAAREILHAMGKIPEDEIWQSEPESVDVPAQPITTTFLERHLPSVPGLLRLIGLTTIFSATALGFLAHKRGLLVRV

[2] = target: T2, hMAO-A (Homo sapiens, UniProt P21397); assay: Inhibition of human recombinant MAO A (Amplex Red assay)
T2 sequence (P21397 1-527): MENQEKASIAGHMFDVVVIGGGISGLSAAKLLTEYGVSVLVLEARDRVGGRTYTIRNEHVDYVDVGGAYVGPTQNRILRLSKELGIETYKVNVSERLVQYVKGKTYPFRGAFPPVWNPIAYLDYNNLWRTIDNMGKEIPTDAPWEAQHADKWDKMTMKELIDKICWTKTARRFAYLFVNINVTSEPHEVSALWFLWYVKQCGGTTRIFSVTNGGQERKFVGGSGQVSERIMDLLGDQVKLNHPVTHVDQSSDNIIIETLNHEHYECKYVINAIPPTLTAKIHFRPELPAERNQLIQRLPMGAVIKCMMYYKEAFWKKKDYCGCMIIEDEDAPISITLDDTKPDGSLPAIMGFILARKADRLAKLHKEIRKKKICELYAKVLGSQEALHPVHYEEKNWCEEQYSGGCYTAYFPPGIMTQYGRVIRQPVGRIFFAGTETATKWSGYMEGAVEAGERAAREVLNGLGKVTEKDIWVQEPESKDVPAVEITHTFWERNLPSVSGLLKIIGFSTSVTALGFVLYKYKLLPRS

[3] = read-out: MAO-B (IC50), Table 3, mean ± SEM from five experiments
[4] = read-out: MAO-A (IC50), Table 3, highest concentration tested
[5] = read-out: MAO-B (IC50), Table 4, single enantiomers, mean ± SEM from five experiments
[6] = read-out: MAO-A (IC50), Table 4, single enantiomers

| Compound | Ratio, selectivity ratios [IC50(MAO-A)]/[IC50(MAO-B)] ([1]; Table 3) | Ratio ([1]; Table 4, single enantiomers) | IC50 [2, 6] [nM] | also measured |
| --- | --- | --- | --- | --- |
| Cc1ccc(C2=NOC(c3ccc(C)cc3)C2)cc1 (racemic) [EMAC II j] | >2436^d |  |  | IC50 [1, 3]: 41 ± 1.52 nM; IC50 [2, 4]: > 100000 nM |
| Cc1ccc(C2=NOC(c3ccc(F)cc3)C2)cc1 (racemic) [EMAC II k] | >312^d |  |  | IC50 [1, 3]: 320 ± 13.6 nM; IC50 [2, 4]: > 100000 nM |
| Cc1ccc(C2=NOC(c3ccc(Cl)c(Cl)c3)C2)cc1 (racemic) [EMAC II l] | >8354^d |  |  | IC50 [1, 3]: 12 ± 0.37 nM; IC50 [2, 4]: > 100000 nM |
| COc1ccc(C2CC(c3ccc(C)cc3)=NO2)cc1 (racemic) [EMAC II m] | >222^d |  |  | IC50 [1, 3]: 450 ± 18 nM; IC50 [2, 4]: > 100000 nM |
| Cc1ccc(C2=NOC(c3ccc(Cl)cc3)C2)cc1 (centres unmarked) [EMAC II i] | >961^d |  |  | IC50 [1]: 104 ± 3.69 nM; IC50 [2]: > 100000 nM |
| Cc1ccc(C2=NO[C@@H](c3ccc(Cl)cc3)C2)cc1 [R-(−) EMAC II i] |  | 6549^b |  | IC50 [1]: 15.3 ± 0.95 nM; IC50 [2]: > 100000 nM |
| Cc1ccc(C2=NO[C@@H](c3ccc(C)cc3)C2)cc1 [R-(−) EMAC II j] |  | 39 216^b | > 100000 | IC50 [1, 5]: 2.55 ± 0.11 nM |
| Cc1ccc(C2=NO[C@@H](c3ccc(F)cc3)C2)cc1 [R-(−) EMAC II k] |  | 333.5^b | > 100000 | IC50 [1, 5]: 300 ± 12 nM |
| Cc1ccc(C2=NO[C@@H](c3ccc(Cl)c(Cl)c3)C2)cc1 [R-(−) EMAC II l] |  | 52 910^b |  | selectivity towards MAO B, increase of the enantiomer versus the racemic mixture [1]: increased by more than six folds; IC50 [2]: > 100000 nM |

More lines, main results first:

| Ratio, selectivity ratios [IC50(MAO-A)]/[IC50(MAO-B)] ([1]; Table 3) | Ratio ([1]; Table 4, single enantiomers) | IC50 [2, 6] [nM] | Compound | also measured |
| --- | --- | --- | --- | --- |
|  | 792.6^b | > 100000 | COc1ccc([C@H]2CC(c3ccc(C)cc3)=NO2)cc1 [R-(−) EMAC II m] | IC50 [1, 5]: 126 ± 8.44 nM |
|  |  | > 100000 | Cc1ccc(C2=NO[C@H](c3ccc(Cl)cc3)C2)cc1 [S-(+) EMAC II i] | IC50 ([1]; read-out: MAO-B (IC50), Table 4, single enantiomers): > 100000 nM |
|  | 3188^b | > 100000 | Cc1ccc(C2=NO[C@H](c3ccc(C)cc3)C2)cc1 [S-(+) EMAC II j] |  |
|  | 2956^b | > 100000 | Cc1ccc(C2=NO[C@H](c3ccc(F)cc3)C2)cc1 [S-(+) EMAC II k] |  |
|  | 9124 |  | Cc1ccc(C2=NO[C@H](c3ccc(Cl)c(Cl)c3)C2)cc1 [S-(+) EMAC II l] | IC50 [2]: > 100000 nM |
|  | 342.6 | > 100000 | COc1ccc([C@@H]2CC(c3ccc(C)cc3)=NO2)cc1 [S-(+) EMAC II m] | IC50 [1, 5]: 292 ± 13.4 nM |
